Values quoted from earlier work, collected in patent publication US20150313829A1, “TOPICAL FORMULATIONS FOR THE PREVENTION AND TREATMENT OF ALOPECIA AND INHIBITION OF HAIR GROWTH” (UNIVERSIDADE FEDERAL DE MINAS GERAIS -UFMG, priority 2012, published 2015).

System: murine model of alopecia
Details: WO 01/98325

What does the source list for “Asp1-Arg2-VAL3-Tyr4-Ile5-His6-Pro7 [Ang-(1-7)]”?
hair growth: induces hair growth; number of mature follicles: increased the number of mature follicles
